Our source for the Ki values is patent US9562057B2, “(Thieno[2,3-b][1,5]benzoxazepin-4-yl)piperazin-1-yl compounds as dual activity H1 inverse agonists/5-HT2A antagonists” (Eli Lilly and Company, priority 2013, dated 2017).

Where a name gives a salt, the structure may show the parent alone.

The target of experiment [1] is T1, recombinant 5-HT2C receptor (human) (Homo sapiens, UniProt P28335).
T1 construct: expressed in transfected cells; host or cells: AV-12
In words: 5-HT2C competition binding assay ([125I]-(±)DOI, SPA). The procedure: [^125I]-(±)DOI binding experiments are carried out in SPA 96-well format. Membranes used in this assay are prepared from AV-12 cells stably expressing recombinant 5-HT2C receptor (human). The incubation is initiated by the addition of a mixture of WGA PVT SPA beads (0.5 mg/well, Perkin Elmer (MA, USA), RPNQ0001) and 2.5 μg membranes to assay buffer (50 mM Tris-HCl, 10 mM MgCl2, 0.5 mM EDTA, 10 μM pargyline, 0.1% ascorbic acid, pH7.4) containing 0.2 nM [[^125I]-(±)DOI and varying concentrations of the test compound (10 point concentration response curves). Non-specific binding is determined in the presence of 20 μM 1-(1-naphthyl) piperazine. Samples are incubated for 4 hr. at room temperature (22° C.) and then read in a Microbeta® Trilux.
Binding data analysis Curves are evaluated using a 4-parameter logistic nonlinear equation to obtain the concentration of competitor causing 50% inhibition of radioligand binding (IC50). Equilibrium dissociation constants (Ki) are calculated according to the equation Ki=IC50/(1+L/Kd), where L equals the concentration of radioligand used in the experiment and Kd equals the equilibrium dissociation constant of the radioligand for the receptor, determined from standard saturation analysis or homologous competition experiments. […]

In experiment [2] the target is Dopamine D3 (Homo sapiens, UniProt P35462). In words: Dopamine D3 binding. From the text: (§1) Further, the compounds of the invention may be tested in binding assays and functional activity assays by well known methods for other physiologically important receptors such as, but not limited to, the hERG channel, other serotonin receptors (specifically 5-HT1B and 5-HT1D receptors, lack of agonist activity at 5-HT2B receptors, 5-HT2C, 5-HT5, 5-HT6, and 5-HT7 receptors), dopaminergic receptors (specifically D1, D2, and D3), GABAA receptors, adrenergic receptors and monoamine transporters.

Experiment [3] addresses Adrenergic alpha1B (Homo sapiens, UniProt P35368). In words: Adrenergic alpha1B binding.
Excerpt: as §1

Dopamine D3, sequence (P35462 whole entry): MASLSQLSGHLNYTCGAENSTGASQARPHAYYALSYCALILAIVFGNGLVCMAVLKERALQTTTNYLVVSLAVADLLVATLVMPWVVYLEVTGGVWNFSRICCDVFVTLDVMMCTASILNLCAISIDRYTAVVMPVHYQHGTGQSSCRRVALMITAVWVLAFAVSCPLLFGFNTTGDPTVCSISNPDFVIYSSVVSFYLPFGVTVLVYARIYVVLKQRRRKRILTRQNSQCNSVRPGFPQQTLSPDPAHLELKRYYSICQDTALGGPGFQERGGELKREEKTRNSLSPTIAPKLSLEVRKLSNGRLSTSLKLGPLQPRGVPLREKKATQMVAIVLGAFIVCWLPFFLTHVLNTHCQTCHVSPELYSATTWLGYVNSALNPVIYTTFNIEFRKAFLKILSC
T1 sequence (P28335 33-458): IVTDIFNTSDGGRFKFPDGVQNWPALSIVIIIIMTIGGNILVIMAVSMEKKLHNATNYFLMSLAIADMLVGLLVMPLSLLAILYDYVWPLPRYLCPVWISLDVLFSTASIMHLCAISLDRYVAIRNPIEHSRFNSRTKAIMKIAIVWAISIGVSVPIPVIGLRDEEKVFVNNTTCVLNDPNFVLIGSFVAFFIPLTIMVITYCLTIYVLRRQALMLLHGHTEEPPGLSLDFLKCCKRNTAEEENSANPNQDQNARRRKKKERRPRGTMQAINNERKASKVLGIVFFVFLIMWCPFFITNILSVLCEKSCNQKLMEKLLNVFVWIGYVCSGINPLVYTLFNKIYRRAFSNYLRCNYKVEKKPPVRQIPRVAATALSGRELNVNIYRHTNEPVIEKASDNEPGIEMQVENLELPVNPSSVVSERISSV
Adrenergic alpha1B, sequence (P35368 whole entry): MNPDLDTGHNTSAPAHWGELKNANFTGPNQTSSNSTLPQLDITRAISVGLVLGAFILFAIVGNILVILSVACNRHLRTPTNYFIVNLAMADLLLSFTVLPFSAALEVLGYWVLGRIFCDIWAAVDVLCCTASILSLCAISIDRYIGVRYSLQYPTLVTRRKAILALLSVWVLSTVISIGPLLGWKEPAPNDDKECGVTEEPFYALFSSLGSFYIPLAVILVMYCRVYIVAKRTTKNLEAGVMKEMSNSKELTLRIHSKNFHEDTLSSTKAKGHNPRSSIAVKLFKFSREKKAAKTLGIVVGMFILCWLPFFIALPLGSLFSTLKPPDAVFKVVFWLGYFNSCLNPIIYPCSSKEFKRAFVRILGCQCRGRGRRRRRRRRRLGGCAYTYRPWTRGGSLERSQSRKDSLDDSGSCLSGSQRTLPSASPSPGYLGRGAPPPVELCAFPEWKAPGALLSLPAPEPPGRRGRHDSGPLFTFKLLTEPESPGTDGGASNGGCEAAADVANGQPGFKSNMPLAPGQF

In the case of `Cc1ccc2c(c1)Oc1sc(C3CC3)cc1C(N1CCN(CC(C)(C)C(=O)O)CC1)=N2` [Example 2, 3-[4-(2-Cyclopropyl-8-methyl-thieno[2,3-b][1,5]benzoxazepin-4-yl)piperazin-1-yl]-2,2-dimethyl-propanoic acid dihydrochloride], the values for the Ki in experiment [1], in experiment [2] and in experiment [3] were 0.493 µM, above 6.28 µM and above 15.5 µM, respectively.
